Biological target: T1, androgen receptor (AR) (Homo sapiens, UniProt P10275)
T1 sequence (P10275 1-920): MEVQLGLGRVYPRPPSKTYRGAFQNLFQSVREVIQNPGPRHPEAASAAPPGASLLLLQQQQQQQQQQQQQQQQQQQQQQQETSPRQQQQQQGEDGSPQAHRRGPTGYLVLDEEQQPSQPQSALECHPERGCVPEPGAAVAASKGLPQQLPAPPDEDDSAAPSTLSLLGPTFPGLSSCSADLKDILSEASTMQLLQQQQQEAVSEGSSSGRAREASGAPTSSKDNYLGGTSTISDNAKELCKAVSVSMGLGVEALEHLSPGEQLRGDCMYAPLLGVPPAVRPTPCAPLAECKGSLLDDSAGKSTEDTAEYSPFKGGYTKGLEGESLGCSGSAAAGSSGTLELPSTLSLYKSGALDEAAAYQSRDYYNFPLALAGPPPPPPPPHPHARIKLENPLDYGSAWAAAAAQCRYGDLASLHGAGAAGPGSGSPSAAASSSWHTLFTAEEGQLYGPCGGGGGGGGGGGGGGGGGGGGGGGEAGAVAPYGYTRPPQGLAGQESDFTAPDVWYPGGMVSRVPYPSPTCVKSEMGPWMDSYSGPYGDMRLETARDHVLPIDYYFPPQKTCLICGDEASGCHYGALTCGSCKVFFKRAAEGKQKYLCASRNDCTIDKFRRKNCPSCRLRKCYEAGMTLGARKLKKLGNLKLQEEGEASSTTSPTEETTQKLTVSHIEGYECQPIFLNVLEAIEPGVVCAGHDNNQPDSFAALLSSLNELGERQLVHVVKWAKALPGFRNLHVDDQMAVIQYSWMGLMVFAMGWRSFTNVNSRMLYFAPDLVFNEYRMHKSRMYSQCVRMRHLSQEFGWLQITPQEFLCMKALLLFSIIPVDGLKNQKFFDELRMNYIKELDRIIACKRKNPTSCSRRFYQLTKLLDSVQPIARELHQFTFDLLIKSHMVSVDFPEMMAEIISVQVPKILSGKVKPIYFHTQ
Test: Degradation of androgen receptor (AR) protein in VCaP cells by Western blot
Type: cell-based
Details: percentage of degraded AR at 100 nM, VCaP cells, 16 h
Method in brief: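 AR and β-actin levels were read by Western blot with ECL detection, loading 30 μg lysate protein per well. Before lysis, VCaP cells seeded at 5×10^5/well and grown overnight were exposed to compound for 16 h, two wells per concentration, keeping DMSO at 0.1%.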

Row | inhibition at 0.1 µM | SMILES | % degradation
1 | > 80% | N#Cc1ccc(O[C@H]2CC[C@H](NC(=O)c3cnc(N4CCC5(CCN(CC6CCN(c7cc8c(cc7F)C(=O)N(C7CCC(=O)NC7=O)C8=O)CC6)C5)C4)cn3)CC2)cc1Cl (some centres unmarked) [Compound 163] | –
2 | 25 to 49% | N#Cc1ccc(O[C@H]2CC[C@H](NC(=O)c3cnc(N4CCC(CN5CC6CN(c7ccc8c(c7)C(=O)N(C7CCC(=O)NC7=O)C8=O)CC6C5)CC4)nc3)CC2)cc1Cl (some centres unmarked) [Compound 256, N-((1r,4r)-4-(3-chloro-4-cyanophenoxy)cyclohexyl)-2-(4-((5-(2-(2,6-dioxopiperidin-3-yl)-1,3-dioxoisoindolin-5-yl)Hexahydropyrrolo[3,4-c]pyrrol-2(11H)-yl)methyl)piperidin-1-yl)pyrimidine-5-carboxamide] | –
3 | 50 to 79% | N#Cc1ccc(O[C@H]2CC[C@H](NC(=O)c3cnc(N4CCC(N5CC6CN(c7cc8c(cc7F)C(=O)N(C7CCC(=O)NC7=O)C8=O)CC6C5)CC4)cn3)CC2)cc1Cl (some centres unmarked) [Compound 64, N-((1r,4r)-4-(3-chloro-4-cyanophenoxy)cyclohexyl)-5-(4-(5-(2-(2,6-dioxopiperidin-3-yl)-6-fluoro-1,3-dioxoisoindolin-5-yl)hexahydropyrrolo[3,4-c]pyrrol-2(1H)-yl)piperidin-1-yl)pyrazine-2-carboxamide] | –
4 | 50 to 79% | N#Cc1ccc(O[C@H]2CC[C@H](NC(=O)c3ccc(N4CCN(CC5C[C@@H]6CN(c7cc8c(cc7F)C(=O)N(C7CCC(=O)NC7=O)C8=O)C[C@@H]6C5)CC4)nn3)CC2)cc1Cl (some centres unmarked) [Compound 226] | –
5 | > 80% | N#Cc1ccc(O[C@H]2CC[C@H](NC(=O)c3ccc(N4CCC(CN5CCC6(CC5)CN(c5cc7c(cc5F)C(=O)N(C5CCC(=O)NC5=O)C7=O)C6)CC4)nn3)CC2)cc1Cl (some centres unmarked) [Compound 231, N-((1r,4r)-4-(3-chloro-4-cyanophenoxy)cyclohexyl)-6-(4-((2-(2-(2-,2,6-dioxopiperidin-3-yl)-6-fluoro-1,3-dioxoisoindolin-5-yl)-2,7-diazaspiro[3.5]nonan-7-yl)methyl)piperidin-1-yl)pyridazine-3-carboxamide] | –
6 | 50 to 79% | N#Cc1ccc(O[C@H]2CC[C@H](NC(=O)c3cnc(N4CC5CN(CC6CN(c7cc8c(cc7F)C(=O)N(C7CCC(=O)NC7=O)C8=O)C6)CC5C4)cn3)CC2)cc1Cl (some centres unmarked) [Compound 159] | –
7 | 50 to 79% | N#Cc1ccc(O[C@H]2CC[C@H](NC(=O)c3ccc(N4CCN(C[C@@H]5[C@H]6CN(c7ccc8c(c7)C(=O)N(C7CCC(=O)NC7=O)C8=O)C[C@@H]56)CC4)nn3)CC2)cc1Cl (some centres unmarked) [Compound 102] | –
8 | 50 to 79% | N#Cc1ccc(O[C@H]2CC[C@H](NC(=O)c3cnc(N4CCC(N5CC6CN(c7ccc8c(c7)C(=O)N(C7CCC(=O)NC7=O)C8=O)CC6C5)CC4)cn3)CC2)cc1Cl (some centres unmarked) [Compound 63, N-((1r,4r)-4-(3-chloro-4-cyanophenoxy)cyclohexyl)-5-(4-(5-(2-(2,6-dioxopiperidin-3-yl)-1,3-dioxoisoindolin-5-yl)hexahydropyrrolo[3,4-c]pyrrol-2(1H)-yl)piperidin-1-yl)pyrazine-2-carboxamide] | –
9 | 25 to 49% | CC1(C)[C@H](NC(=O)c2ccc(N3CCC(N4C[C@H]5CN(c6cc7c(cc6F)C(=O)N(C6CCC(=O)NC6=O)C7=O)C[C@H]5C4)CC3)nn2)C(C)(C)[C@H]1Oc1ccc(C#N)c(Cl)c1 (stereo partly drawn) [Compound 221, N-((1r,3R)-3-(3-chloro-4-cyanophenoxy)-2,2,4,4-tetramethylcyclobutyl)-6-(4-((3aR,6aS)-5-(2-(2,6-dioxopiperidin-3-yl)-6-fluoro-1,3-dioxoisoindolin-5-yl)hexahydropyrrolo[3,4-c]pyrrol-2(1H)-yl)piperidin-1-yl)pyridazine-3-carboxamide] | –
10 | 25 to 49% | CC1(C)[C@H](NC(=O)c2ccc(N3CCN(C[C@@H]4[C@H]5CN(c6cc7c(cc6F)C(=O)N(C6CCC(=O)NC6=O)C7=O)C[C@@H]45)CC3)nn2)C(C)(C)[C@H]1Oc1ccc(C#N)c(Cl)c1 (some centres unmarked) [Compound 101] | –

More lines, now with the values behind:

Row | SMILES | inhibition at 0.1 µM | % degradation
11 | N#Cc1ccc(O[C@H]2CC[C@H](NC(=O)c3ccc(N4CCC(CN5CCC(Nc6cc7c(cc6F)C(=O)N(C6CCC(=O)NC6=O)C7=O)CC5)CC4)nn3)CC2)cc1Cl (some centres unmarked) [Compound 139] | > 80% | –
12 | CC1(C)[C@H](Oc2ccc(C#N)c(Cl)c2)C(C)(C)[C@H]1N1Cc2nc(C#CC3CCN(C4CN(c5ccc6c(c5)C(=O)N(C5CCC(=O)NC5=O)C6=O)C4)CC3)ccc2C1=O (some centres unmarked) [Compound 317, 2-Chloro-4-((1r,3r)-3-(2-((1-(1-(2-(2,6-dioxopiperidin-3-yl)-6-fluoro-1,3-dioxoisoindolin-5-yl)azitidin-3-yl)piperidine-4-yl)ethynyl)-5-oxo-5H-pyrrolino [3,4-b]pyridin-6(7H)-yl)-2,2,4,4-tetramethylcyclobutoxy)benzonitrile] | 50 to 79% | –
13 | N#Cc1ccc(O[C@H]2CC[C@H](NC(=O)c3cnc(N4CCC(CN5CCC(Nc6cc7c(cc6F)C(=O)N(C6CCC(=O)NC6=O)C7=O)CC5)CC4)cn3)CC2)cc1Cl (some centres unmarked) [Compound 145] | > 80% | –
14 | CC1(C)[C@H](Oc2ccc(C#N)c(Cl)c2)C(C)(C)[C@H]1N1Cc2nc(C#CC3CC(NC4CCN(c5ccc6c(c5)C(=O)N(C5CCC(=O)NC5=O)C6=O)CC4)C3)ccc2C1=O (some centres unmarked) [Compound 327, 2-Chloro-4-((1r,3r)-3-(2-((3-(1-(2-(2,6-dioxopiperidin-3-yl)-1,3-dioxoisoindolin-5-yl)piperidine-4-ylamino)cyclobutyl)ethynyl)-5-oxo-5,7-dihydro-pyrrolo[3,4-b]pyridin-6-yl)-2,2,4,4-tetramethylcyclobutoxy)benzonitrile] | 50 to 79% | –
15 | CC1(C)[C@H](Oc2ccc(C#N)c(Cl)c2)C(C)(C)[C@H]1N1Cc2nc(C#CC3CCN(C4CN(c5cc6c(cc5F)C(=O)N(C5CCC(=O)NC5=O)C6=O)C4)CC3)ccc2C1=O (some centres unmarked) [Compound 318, 2-Chloro-4-((1r,3r)-3-(2-((1-(1-(2-(2,6-dioxopiperidin-3-yl)-6-fluoro-1,3-dioxoisoindolin-5-yl)azitidin-3-yl)piperidine-4-yl)ethynyl)-5-oxo-5H-pyrrolino [3,4-b]pyridin-6(7H)-yl)-2,2,4,4-tetramethylcyclobutoxy)benzonitrile] | 50 to 79% | –
16 | N#Cc1ccc(OC2CCC(NC(=O)c3ccc(N4C[C@@H]5C(CN6CCN(c7cc8c(cc7F)C(=O)N(C7CCC(=O)NC7=O)C8=O)CC6)[C@@H]5C4)nn3)CC2)cc1Cl (stereo partly drawn) [Compound 178, N-((1r,4R)-4-(3-chloro-4-cyanophenoxy)cyclohexyl)-6-((1R,5S,6S)-6-((4-(2-(2,6-dioxopiperidin-3-yl)-6-fluoro-1,3-dioxoisoindolin-5-yl)piperazin-1-yl)methyl)-3-azabicyclo[3.1.0]hexan-3-yl)pyridazine-3-formamide] | – | B (79%-50%)
17 | N#Cc1ccc(Oc2ccc(NC(=O)c3ccc(N4CCC(CN5CCN(c6cc7c(cc6F)C(=O)N(C6CCC(=O)NC6=O)C7=O)CC5)CC4)nn3)cc2)cc1Cl (centres unmarked) [Compound 227, N-(4-(3-chloro-4-cyanophenoxy)phenyl)-6-(4-((4-(2-(2,6-dioxopiperidin-3-yl)-6-fluoro-1,3-dioxoisoindolin-5-yl)piperazin-1-yl)methyl)piperidin-1-yl)pyridazine-3-formamide] | 25 to 49% | –
18 | N#Cc1ccc(OC2CCC(NC(=O)c3ncc(N4C[C@H]5CC(N6CCN(c7cc8c(cc7F)C(=O)N(C7CCC(=O)NC7=O)C8=O)CC6)C[C@H]5C4)cn3)CC2)cc1Cl (stereo partly drawn) [Compound 294, N-((1r,4r)-4-(3-chloro-4-cyanophenoxy)cyclohexyl)-5-((3aR,5R,6aS)-5-(4-(2-(2,6-dioxopiperidin-3-yl)-6-fluoro-1,3-dioxoisoindolin-5-yl)piperazin-1-yl)hexahydrocyclopenta[c]pyrrole-2(1H)-yl)pyrimidine-2-carboxamide] | – | C (49%-25%)
19 | N#Cc1ccc(OC2CC3(C2)CN(C(=O)c2ccc(N4CCC(CN5CCN(c6ccc7c(c6)C(=O)N(C6CCC(=O)NC6=O)C7=O)CC5)CC4)nn2)C3)cc1Cl (centres unmarked) [Compound 120, 2-chloro-4-((2-(6-(4-((4-(2-(2,6-dioxopiperidin-3-yl)-1,3-dioxoisoindolin-5-yl)piperazin-1-yl)methyl)piperidin-1-yl)pyridazine-3-carbonyl)-2-azaspiro[3.3]heptan-6-yl)oxy)benzonitrile] | < 25% | –
20 | N#Cc1ccc(OC2CCC(NC(=O)c3cnc(N4CCC(NC5CCN(c6cc7c(cc6F)C(=O)N(C6CCC(=O)NC6=O)C7=O)CC5)CC4)cn3)CC2)cc1Cl (centres unmarked) [Compound 73, N-((1r,4r)-4-(3-chloro-4-cyanophenoxy)cyclohexyl)-5-(4-((1-(2,6-dioxopiperidin-3-yl-6-fluoro-1,3-dioxoisoindolin-5-yl)piperidine-4-yl)amino)piperidin-1-yl)pyrazine-2-carboxamide] | – | A (>80%)

Source: patent US20230091225A1, “Bifunctional chimeric heterocyclic compounds for targeted degradation of androgen receptors and use thereof” (HINOVA PHARMACEUTICALS INC., priority 2019, published 2023)
